Test results as given in US20110190270A1, “METHODS OF TREATING THROMBOEMBOLIC DISORDERS” (MONASH UNIVERSITY, priority 2008, published 2011).

What was measured:
[1] = tested on: thrombi in mesenteric post-capillary venules; test: intravital microscopy of thrombus growth and stability after vessel injury; type: in vivo, mice; conditions: for effect on thrombus stability and embolization in vivo (in words): local microinjection after thrombus formation; for effect on thrombus stability and embolization in vivo (in words) / mean reduction in thrombus size: needle puncture, no lepirudin; for stability of the primary hemostatic plug (in words): mice pretreated with lepirudin 50 mg/kg i.v., local infusion into formed thrombus; for mean reduction in thrombus size: local administration into the microcirculation after thrombus formation
Method: The development and consolidation of thrombi in response to vessel injury was monitored using intravital microscopy. C57BL6 or PAR4 deficient (15 g-18 g) mice were anaesthetised using sodium pentobarbitone (60 mg/kg), and the mesentery exteriorized through a midline abdominal incision. Body temperature was maintained during the procedure using an infrared heat lamp, and exposed mesenteric vessels (50-160 μm diameter) were hydrated using warm saline. Vessel injury was achieved either through vessel puncture using a microinjection needle (20-30 μm tip diameter) connected to a micromanipulator (Eppendorf), or through application of 6% FeCl3-soaked filter paper (8 sec). Accrual of platelets to the area of injury was recorded in real-time as described for in vitro flow assays (above). […] (25 mM stock solution, 2.5 μl total injection volume), or an equivalent volume of vehicle (DMSO), were locally infused into developing thrombi via the microinjection needle (release rate 2-3 μl/min, 3 cycles). To prevent fibrin generation, in some experiments, lepirudin (50 mg/kg) was administered via intravenous injection prior to induction of injury and subsequent injection of inhibitors. Complete abolition of fibrin formation at this concentration of lepirudin was confirmed by histology using Carstair's stain. The surface area of thrombi in vivo was measured using Image J, with analysis of every 5th frame (at 1 frame/sec) over 4-5 mins. Change in surface area was expressed as fold-increase or decrease over the original surface area (=1).

[2] = tested on: platelet thrombi formed from human whole blood; test: in vitro thrombus consolidation under flow on Type I collagen; type: cell-based; conditions: for effect of fibrin/thrombin inhibition on contraction of platelet thrombi (in words): whole blood, 1800 s-1, GPRP 280 μM in native blood, hirudin-anticoagulated, lepirudin 1600 U/ml + enoxaparine 400 U/ml
Method: Flow-based thrombus formation assays on a bovine fibrillar Type I collagen matrix were performed at 37° C. in the absence of fibrin. Briefly, […] (DMSO), Blebbistatin (+) (200 μM), Blebbistatin (−) (200 μM), EGTA/Mg^2+ (2 mM/1 mM), HA1077 (80 μM), H1152 (40 μM) or 2-APB (200 μM) (10 mins, 37° C.) prior to perfusion through fibrillar type I collagen-coated microcapillary tubes (2.0 mg/ml) at 1800 s^−1 for 5 mins. Thrombus formation was observed using an inverted Leica DMIRB microscope (Leica Microsystems, Wetzlar, Germany) with a 63× water objective (1.2 numeric aperture (NA)), and recorded in real-time using a Dage-MTI charge-coupled device (CCD) camera 300 ETRCX (Dage-MTI, Michigan City, Ind.).
Two-dimensional quantification of thrombus consolidation—Quantification of thrombus contraction was performed by ‘spiking’ whole blood with 3% DiIC12-labelled platelets prior to perfusion. Spiked whole blood was then perfused over collagen matrices as described above, and DIC/fluorescence images were recorded in real-time as described above, for off-line analysis. Studies examining the effect of 2-APB on consolidation were performed by perfusing untreated whole blood across microslides for 30 seconds to establish a nucleating thrombus, followed by perfusion of inhibitor treated blood. […] The distance between 2 fluorescently-labelled platelets in a given thrombus was measured in […] every 30 sec over 5 min. Results are expressed as percentage decrease in the distance between 2 platelets incorporated into a thrombus prior to 1 minute of flow, with the distance between platelets at 1 minute taken as 100%.
3D volumetric thrombus analysis—For analysis of thrombus volume, whole blood was labelled with DiIC12 (1 μM) prior to perfusion. Thrombi were formed as described above, and images captured in real-time using an inverted Leica DMIRB confocal microscope, with […] sections acquired every 30 seconds over 4-5 min. Analysis of thrombus volume was performed using Metamorph 6 software.

[3] = tested on: platelet-mediated fibrin clot retraction in citrated PRP; test: platelet-mediated fibrin clot retraction; type: cell-based, human; conditions: thrombin 1 U/ml, 2-APB 200 μM, EGTA/Mg2+ 2 mM/1 mM, H1152 40 μM, HA1077 80 μM
Method: Washed platelets were prepared from acid-citrate dextrose (ACD)-anticoagulated whole blood, with the inclusion of Lepirudin (800 U/ml) in the Platelet Washing Buffer and Apyrase (0.02 U/ml) in the Tyrode's Buffer.
Platelet-mediated fibrin-dependent clot retraction was measured using citrated PRP^9,10. Results are expressed as, the percentage of serum remaining in the tube following clot removal, after subtracting the volumes obtained for c7E3 (negative control) samples.

non-muscle myosin II = conditions: read-out: IC50, inhibitor of non-muscle myosin II; cited from earlier work
[4] = tested on: occlusive blood clot in the carotid artery; test: carotid artery occlusion model, clot lysis and vascular reperfusion; type: in vivo, mice; conditions: regimens A-H of FIGS. 8 and 9, blood flow monitored 60 minutes
Method: Mice were anaesthetised and minor surgery performed to expose to the carotid artery and jugular vein. A Doppler flow probe was placed around the carotid artery to monitor blood flow through this blood vessel, and a catheter placed in the jugular vein to administer drugs. A blood clot was formed in the carotid artery of the mouse through the delivery of a small electric current (4 mA for 1.25 min^g), resulting in complete blockage of blood flow through the vessel (blood flow=0 mls/min), as measured by the flow probe. After vessel blockade was established, various combinations of t-PA, urokinase, heparin, hirudin, HA1077 and Y27632 were administered, using concentrations and regimens indicated (A-H in FIGS. 8 and 9) and examined for their efficacy to dissolve blood clots and restore blood flow. Blood flow was monitored in mice receiving each drug combination for a further 60 minutes, and blood flow measurements recorded using computer software.

[5] = H1152 40 μM, Blebbistatin (−) 200 μM, lepirudin-anticoagulated human whole blood, 1800 s-1
[6] = GPRP added to native whole blood, 1800 s-1

Cc1ccc2c(c1)C(=O)C1(O)CCN(c3ccccc3)C1=N2 (single isomer, unassigned) [inactive blebbistatin enantiomer]
effect on thrombus stability and embolization in vivo (in words) [1]: no effect | stability of the primary hemostatic plug (in words) [1]: no adverse effect

NCCOB(c1ccccc1)c1ccccc1 [2-APB, 2-aminoethoxydiphenyl borate]
reduction of thrombus contraction ([2]; 2-APB 200 μM, perfused after 30 sec of untreated blood, lepirudin-anticoagulated human whole blood, 1800 s-1): 32% | fibrin clot retraction (in words) [3]: abolished clot retraction

Cc1ccc2c(c1)C(=O)C1(O)CCN(c3ccccc3)C1=N2 (stereo not drawn) [Blebbistatin]
IC50 (non-muscle myosin II): ~4 µM | stability of thrombi formed in vitro (in words) [2, 5]: highly unstable platelet thrombi | effect on thrombus contraction / consolidation (in words) ([2]; HA1077 80 μM, Blebbistatin (−) 200 μM, lepirudin-anticoagulated human whole blood, 1800 s-1): tight packing of platelets did not occur | thrombus behaviour on cessation of administration ([1]; after stopping local administration): thrombi rapidly reformed | mean reduction in thrombus size [1]: 38% | stability of the primary hemostatic plug (in words) ([1]; listed as active enantiomer of blebbistatin): near complete embolization of the formed thrombus

O=C(O)CN(CCOCCOCCN(CC(=O)O)CC(=O)O)CC(=O)O [EGTA]
reduction of the rate of thrombus contraction ([2]; EGTA/Mg2+ 2 mM/1 mM, lepirudin-anticoagulated human whole blood, 1800 s-1, at 5 mins perfusion): up to 52% | fibrin clot retraction (in words) [3]: no significant inhibitory effect

Cc1cncc2cccc(S(=O)(=O)N3CCCNC[C@@H]3C)c12.Cl.Cl [H1152, (S)-(+)-2-methyl-1-[(4-methyl-5-isoquinolinyl)sulfonyl]homopiperazin, 2HCl]
stability of thrombi formed in vitro (in words) [2, 5]: less stable thrombi | decrease in thrombus contraction ([2]; H1152 40 μM, lepirudin-anticoagulated human whole blood, 1800 s-1, after 5 mins perfusion): 88% | mean reduction in thrombus size [1]: 34% | effect on thrombus stability and embolization in vivo (in words) [1]: more effective than the IP3 receptor antagonist APB | fibrin clot retraction (in words) [3]: neither inhibitor had any significant effect

Cl.O=S(=O)(c1cccc2cnccc12)N1CCCNCC1 [HA1077, 1-(5-isoquinolinesulphonyl)-homopiperazine HCl]
clot lysis and re-establishment of blood flow (in words) [4]: unable to lyse blood clots and re-establish blood flow | fibrin clot retraction (in words) [3]: neither inhibitor had any significant effect

Gly-Pro-Arg-Pro peptide [GPRP]
formation of fibrin polymers [2, 6]: inhibited the formation of individual fibrin polymers | platelet thrombus growth [2, 6]: no inhibitory effect | effect of fibrin/thrombin inhibition on contraction of platelet thrombi (in words) [2]: unaltered

lepirudin
effect of fibrin/thrombin inhibition on contraction of platelet thrombi (in words) [2]: underwent a prominent contractile phase | thrombus stability in the absence of thrombin ([1]; wild type mice pretreated with lepirudin 50 mg/kg prior to vessel injury): thrombi were more unstable
